Results on six compounds are retold here after BindingDB's records for doi:10.1021/jm990614i (Harvard Medical School, 2000).

One test addresses Aldehyde dehydrogenase, mitochondrial (Mesocricetus auratus). Briefly: Inhibition of Hamster Liver mitochondrial ALDH-2.
In the case of `O=c1c(-c2ccc(O)cc2)coc2cc(OCCC3OCCCO3)ccc12` [7-(2-[1,3]Dioxan-2-yl-ethoxy)-3-(4-hydroxy-phenyl)-chromen-4-one], the concentration for half-maximal inhibition (IC50) stood at 0.4 µM.
As for `C=CCOc1ccc2c(=O)c(-c3ccc(O)cc3)coc2c1` [7-Allyloxy-3-(4-hydroxy-phenyl)-chromen-4-one], the IC50 is 0.8 µM.
`CCOc1ccc2c(=O)c(-c3ccc(O)cc3)coc2c1` [7-Ethoxy-3-(4-hydroxy-phenyl)-chromen-4-one]: the IC50 is 0.04 µM. Compared with the last compound, the IC50 is about 20-fold lower.
As for `O=C(O)CCCCCCOc1ccc2c(=O)c(-c3ccc(O)cc3)coc2c1` [7-[3-(4-Hydroxy-phenyl)-4-oxo-4H-chromen-7-yloxy]-heptanoic acid], the concentration for half-maximal inhibition (IC50) was 0.009 µM.
In turn, `O=C(O)CCCCCCCCCOc1ccc2c(=O)c(-c3ccc(O)cc3)coc2c1` [10-(3-(4-hydroxyphenyl)-4-oxo-4H-chromen-7-yloxy)decanoic acid] showed an IC50 of 0.004 µM.

The target is the same in the next test. Briefly: Compound was evaluated for the inhibition of Hamster Liver mitochondrial ALDH-2.
As for `O=c1c(-c2ccc(O)cc2)coc2cc(OCC(O)CO)ccc12` (stereo unspecified) [7-(2,3-Dihydroxy-propoxy)-3-(4-hydroxy-phenyl)-chromen-4-one], 0.1 µM corresponded to half-maximal inhibition (IC50).

In general, IC50 refers to the concentration that gives 50% inhibition. High values mean weaker potency, low ones greater potency.
